{"source": "patent US6703370B1", "about": "“Use of ribose to treat fibromyalgia” (Bioenergy, Inc., priority 1999, dated 2004)", "type_in_all_cases": "in vivo, human", "key": {"fibromyalgia patient": {"tested_on": "fibromyalgia patient", "assay": "Alleviation of symptoms in a fibromyalgia patient (single case, oral ribose)", "source_text": "A patient diagnosed with fibromyalgia had been experiencing extreme muscle pain and fatigue as well as irritable bowel syndrome, disturbed sleep, and cognitive dysfunction. They had been told by their physician that they were in the worst stage of the condition and could end up in a wheel chair within a year. They began taking ribose, one teaspoonful (about 5 grams), 4 times per day. […] They continued taking it for a week then decided to observe the effects of stopping the doses of ribose, so they discontinued the protocol for one week. […] They stated that “It is without a doubt the best product I have ever been on.”"}, "fibromyalgia subjects": {"tested_on": "fibromyalgia subjects", "assay": "Pilot study on the effect of ribose in alleviating the symptoms of fibromyalgia (SF-36 health status profile and subject reports)", "source_text": "Four women subjects ranging in age from 45 to 55 were given ribose and instructed to take at least 20 grams per day, preferably divided in four doses. The recommended mode of administration was one heaping teaspoon, about five to seven grams, mixed in six to eight ounces of water, taken preferably with meals and before planned activity. Subjects were encouraged to vary the dosage according to their perceived needs. Each subject was given a health status profile (SF-36) to complete. The profile was to be filled out both before and after four weeks of ribose administration. Two of the subjects complied with filling out the profile.\nHealth Status Profile (SF-36):\n1) General health compared to one year ago: 1=much better, 2=somewhat better, 3=about the same, 4=somewhat worse, 5=much worse\n2) Energy, 2 questions, from peppy all of the time to none of the time.\n3) Activities, 12 examples from vigorous to mild, scored as: limited a lot, limited a little, not limited\n4) Pain: 1=none, 2=very mild, 3=mild, 4=moderate, 5=severe, 6 =very severe The results of each subject's before and after ratings are summarized in Table I."}, "[1]": {"tested_on": "patients with fibromyalgia (FM)", "assay": "Planned double-blind crossover study of oral ribose in fibromyalgia", "conditions": "16 patients planned, 20 gm per day (10 gm bid), 4 weeks, crossover against dextrose placebo", "source_text": "Following the informal studies in five subjects, a protocol was written to determine whether oral ribose administration in patients with fibromyalgia (FM) can reduce symptoms of fatigue and pain and improve the subjects' quality of life. The study endpoints will be: (1) the patient's visual analog (PVA) scale for pain, (2) the patient's analog scale for fatigue, (3) the physician's global assessment (GAphs), (4) the patient's global assessment (GAPT), (5) the Western Ontario MacMaster Questionaire (WOMAC) index, (6) SF-36 quality of life form, (7) the patient's's daily activity/events log and (8) the number of days to study discontinuation, if the patient chooses to do so, based upon his/her improved condition. The study will include 16 patients with a confirmed diagnosis of FM using a double-blind crossover design. All patients who meet entrance or screening criteria will be randomly assigned to either treatment #1 (oral dextrose as a placebo) or treatment #2 (oral ribose) at a dose of 20 gm per day (10 gm bid), as a first treatment modality. Both physician and patient will be blinded to the treatment modality. Informed consent will be obtained prior to enrolment. […] All endpoint parameters will be assessed at baseline prior to treatment, after 4 weeks of treatment one, at the end of the workout period, and again following 4 weeks of treatment 2 (“crossover” treatment modality). […]"}, "fibromyalgia patients": {"tested_on": "fibromyalgia patients", "assay": "Applicants' general finding on steady ingestion of ribose", "conditions": "steady ingestion two to four times per day over the course of a week", "source_text": "Continued ingestion leads to greater improvement, in turn allowing the patient to endure the much needed regular exercise to further relieve the painful symptoms."}, "[2]": {"conditions": "after resuming, one teaspoonful 4 times per day, after 4 weeks"}}}
{"smiles": "O=C[C@H](O)[C@H](O)[C@H](O)CO", "note": "[ribose, D-ribose]", "values": [{"measurement": "Irritable painful bowel syndrome", "setting": "fibromyalgia patient; [2]", "value": "improved their irritable painful bowel syndrome"}, {"measurement": "Pain, fatigue and morning stiffness", "setting": "fibromyalgia patient; [2]", "value": "alleviated their pain, fatigue and morning stiffness"}, {"measurement": "Energy and flare ups of muscle soreness", "setting": "fibromyalgia patient; patient, about 5 grams 4 times per day, first week", "value": "more energy and fewer flare ups of muscle soreness"}, {"measurement": "Symptoms on starting ribose", "setting": "fibromyalgia patient; patient, about 5 grams 4 times per day, oral", "value": "immediate improvement in their symptoms"}, {"measurement": "Symptoms after discontinuing ribose", "setting": "fibromyalgia patient; protocol discontinued for one week", "value": "symptoms returned to their previous level"}, {"measurement": "General health compared to last year, after", "setting": "fibromyalgia subjects; Subject #1, 45-54, fibromyalgia for 15 years, after four weeks of ribose, at least 20 grams per day, before: much worse, after cell wraps r10-r11: somewhat better", "value": "somewhat"}, {"measurement": "Activities (12 total) limited a lot, after", "setting": "fibromyalgia subjects; Subject #1, after four weeks of ribose, before: 8 of 12 limited a lot", "value": "1 of 12 limited a"}, {"measurement": "Energy, after", "setting": "fibromyalgia subjects; Subject #1, after four weeks of ribose, before: little of the time, after cell wraps r11-r12: all of the time", "value": "all of the"}, {"measurement": "Pain, after", "setting": "fibromyalgia subjects; Subject #1, after four weeks of ribose, before: very severe", "value": "moderate"}, {"measurement": "General health compared to last year, after", "setting": "fibromyalgia subjects; Subject #2, 50-55, fibromyalgia for several years, after four weeks of ribose, before: somewhat better", "value": "much better"}, {"measurement": "Activities (12 total) limited, after", "setting": "fibromyalgia subjects; Subject #2, after four weeks of ribose, before: 2 of 12 limited a lot", "value": "0 of 12 limited"}, {"measurement": "Energy, after", "setting": "fibromyalgia subjects; Subject #2, after four weeks of ribose, before: none of the time, after cell wraps r16-r17: some of the time", "value": "some of the"}, {"measurement": "Pain, after", "setting": "fibromyalgia subjects; Subject #2, after four weeks of ribose, before: severe", "value": "moderate"}, {"measurement": "Energy", "setting": "fibromyalgia subjects; Subject #3", "value": "more energetic"}, {"measurement": "Energy after cessation of administration", "setting": "fibromyalgia subjects; Subject #3", "value": "next-day loss of energy"}, {"measurement": "Severe pain at the tender points", "setting": "fibromyalgia subjects; Subject #3", "value": "did not feel a decrease in severe pain at the tender points"}, {"measurement": "Fatigue level and achiness", "setting": "fibromyalgia subjects; Subject #3, compliant with protocol, no profile", "value": "improvement in their fatigue level and less achiness"}, {"measurement": "Energy when ribose is taken on feeling exhausted", "setting": "fibromyalgia subjects; Subject #4, did not follow the protocol", "value": "feel more energetic"}, {"measurement": "Energy and aching after suspending ribose administration", "setting": "fibromyalgia subjects; Subjects #1 and #2, on suspending ribose", "value": "drop in energy and increase in aching within a day"}, {"measurement": "Overall relief from symptoms of fibromyalgia", "setting": "fibromyalgia subjects; all subjects of the pilot study", "value": "all reported some alleviation"}, {"measurement": "Expected alleviation of achiness, fatigue and/or pain at the tender points", "setting": "[1]", "value": "most of the patients will experience some alleviation of achiness, fatigue and/or pain at the tender points"}, {"measurement": "Fatigue, achiness, pain, energy and irritable bowel syndrome", "setting": "fibromyalgia patients", "value": "noticeable improvement in the level of fatigue, achiness, pain, and energy, and alleviation of irritable bowel syndrome"}]}
